Assays:
HL-60 cells [1] = experiment: Intracellular retentivity of calcein and fluorescein taken up by HL-60 cells as esters; assay type: cell-based
Protocol: (§1) The compound 5 (APC) is a substantially non-fluorescent (Φf=0.007) substance having a moiety that specifically reacts with reactive oxygen species in the molecule. This substance specifically reacts with reactive oxygen species, and thereby becomes calcein to emit fluorescence. The tetracetoxymethyl ester of this calcein and diacetyl ester of fluorescein were taken up by HL-60 cells, and intracellular retentivity of calcein and fluorescein was evaluated.

[2] = pKa comparison of calcein and fluorescein; assay type: physicochemical
HL-60 cells [3] = experiment: Intracellular retentivity of reaction products of APF and APC-AM in HL-60 cells by FACS; assay type: cell-based; conditions: 10 μM loaded 60 minutes, 100 μM hydrogen peroxide 15 minutes
Protocol: Intracellular retentivities of the reaction products produced from APF and APC with the reactive oxygen species were compared in a similar manner. APF and APC-AM (10 μM, 1.0% dimethylformamide (cosolvent) for the both) were loaded on the HL-60 cells for 60 minutes by adding them to the medium of the cells, and then the cells were stimulated with 100 μM hydrogen peroxide for 15 minutes. Then, fluorescence intensity was periodically measured (0 minute, 30 minutes, 60 minutes) by FACS. In FIG. 6, the graphs (A) to (C) show the results obtained with APF, and the graphs (D) to (F) show the results obtained with APC-AM. The graphs (A) and (D) show the results obtained immediately after the hydrogen peroxide stimulation, (B) and (E) show the results obtained 30 minutes after the stimulation, and (C) and (F) show the results obtained 60 minutes after the stimulation.

[4] = Fluorescence quantum yield (Φf); assay type: physicochemical
Protocol: as §1

HeLa cells = experiment: Imaging of reactive oxygen species in living HeLa cells after sodium hypochlorite stimulation; assay type: cell-based; conditions: 1.0 μM loaded for 15 minutes, 500 μM sodium hypochlorite
Protocol: Imaging of reactive oxygen species in living cells was performed by using the compound 5 (APC). The compound 6 (APC-AM, 1.0 μM, 0.1% dimethylformamide (cosolvent)), which corresponds to APC esterified to increase cell membrane permeability, was loaded on the HeLa cells for 15 minutes by addition to the medium of the cells, and then the cells were stimulated with 500 μM sodium hypochlorite.

SMILES: O=C1OC2(c3ccc(O)cc3Oc3cc(O)ccc32)c2ccccc21 [fluorescein]
- Fluorescence intensity in the HL-60 cells over time (intracellular retentivity), level remaining (HL-60 cells [1]; after 15 minutes, loaded as diacetyl ester, fraction of the starting intensity): 1/10
- pKa [2]: 6.4

SMILES: Nc1ccc(Oc2ccc3c(-c4ccccc4C(=O)O)c4ccc(=O)cc-4oc3c2)cc1 [APF, aminophenylfluorescein]
- Fluorescence intensity by FACS immediately after hydrogen peroxide stimulation (HL-60 cells [3]; 0 minute): increase of fluorescence intensity was observed
- Fluorescence intensity by FACS 30 and 60 minutes after stimulation (intracellular retentivity of reaction product) (HL-60 cells [3]; 30 and 60 minutes): detection thereof became difficult after 30 minutes

SMILES: O=C(O)CN(CC(=O)O)Cc1cc2c(cc1O)Oc1cc(O)c(CN(CC(=O)O)CC(=O)O)cc1C21OC(=O)c2ccccc21 [calcein]
- Fluorescence quantum yield Φf [4]: 0.793
- Fluorescence intensity in the HL-60 cells over time (intracellular retentivity) (HL-60 cells [1]; after 60 minutes, loaded as tetracetoxymethyl ester): hardly decreased
- pKa [2]: ~5.4

SMILES: CC(=O)OCOC(=O)CN(CC(=O)OCOC(C)=O)Cc1c(O)ccc2c1Oc1c(ccc(Oc3ccc([N+](=O)[O-])cc3)c1CN(CC(=O)OCOC(C)=O)CC(=O)OCOC(C)=O)C21OC(=O)c2ccccc21 (centres unmarked) [APC-AM, 3-Hydroxy-4,5-bis[N,N′-di(carboxymethyl)aminomethyl]-6-(4′-nitro)phenoxyfluorescein tetracetoxymethyl ester]
- Fluorescence in HeLa cells after sodium hypochlorite stimulation (HeLa cells): Extremely intense fluorescence
